From patent US12528815B2, “5-amino-8-(4-pyridyl)-[1,2,4]triazolo[4,3-c]pyrimidin-3-one compounds for use against cancer” (Nxera Pharma UK Limited, priority 2020, dated 2026) come the findings set out here.

The target in assay [1] is T1, human adenosine A2A receptor (Homo sapiens, UniProt P29274).
T1 construct: expressed in transfected cells; host or cells: HEK293 cells infected with BacMam
Kind of assay: Inhibition binding assay, human adenosine A2A receptor membranes, [3H]ZM241385. The following applies: 1 nM [3H]ZM241385, HEK293-hA2A membranes, 25° C., 1 h, IC50 converted to Ki with Cheng-Prusoff. The essentials: (§1)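 Membranes from BacMam-infected HEK293 cells (0.2 μg A2A, 1.4 μg A1) incubated 1 h at 25° C with test compound and 1 nM [3H]ZM241385 (A2A; 50 mM Tris-HCl pH 7.4) or [3H]DPCPX (A1; plus 100 mM NaCl, 10 mM MgCl2). Nonspecific: 1 μM CGS15943 or DPCPX. Filtration, scintillation; IC50 converted to Ki via Cheng-Prusoff.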

Assay [2] deals with T2, human adenosine A1 receptor (Homo sapiens, UniProt P30542).
T2 construct: expressed in transfected cells; host or cells: HEK293 cells infected with BacMam (the same paragraph also labels the preparation CHO-hA1)
T2 sequence (P30542 1-326): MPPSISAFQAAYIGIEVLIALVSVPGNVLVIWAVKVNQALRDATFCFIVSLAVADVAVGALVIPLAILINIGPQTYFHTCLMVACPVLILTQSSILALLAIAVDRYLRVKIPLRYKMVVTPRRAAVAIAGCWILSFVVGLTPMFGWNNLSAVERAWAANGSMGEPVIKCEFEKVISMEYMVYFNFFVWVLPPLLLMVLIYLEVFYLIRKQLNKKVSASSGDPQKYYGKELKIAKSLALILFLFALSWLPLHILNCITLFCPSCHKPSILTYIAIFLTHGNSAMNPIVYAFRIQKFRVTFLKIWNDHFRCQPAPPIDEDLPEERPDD
Kind of assay: Inhibition binding assay, human adenosine A1 receptor membranes, [3H]DPCPX. The following applies: 1 nM [3H]DPCPX, 25° C., 1 h; IC50 converted to Ki with Cheng-Prusoff; read-out: A1 pKi (converted). The essentials:
as §1

Like-named read-outs stand apart in the source and are kept apart here.

T1 sequence (P29274 whole entry): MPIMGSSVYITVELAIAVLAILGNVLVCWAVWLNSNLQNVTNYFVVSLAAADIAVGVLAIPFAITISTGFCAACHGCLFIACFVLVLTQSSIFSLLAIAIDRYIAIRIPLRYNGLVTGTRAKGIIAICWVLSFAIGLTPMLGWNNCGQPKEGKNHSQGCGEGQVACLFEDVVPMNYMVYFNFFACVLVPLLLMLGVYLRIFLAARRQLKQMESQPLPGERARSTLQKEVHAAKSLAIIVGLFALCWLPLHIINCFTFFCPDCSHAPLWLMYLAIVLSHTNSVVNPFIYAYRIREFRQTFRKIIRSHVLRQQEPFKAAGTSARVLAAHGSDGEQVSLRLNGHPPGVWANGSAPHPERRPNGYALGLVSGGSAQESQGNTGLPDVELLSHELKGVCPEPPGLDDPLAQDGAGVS

With `Cc1cc(-c2c(-c3ccccc3)nc(N)n3c(=O)n(CC4CCCOC4)nc23)cc(C)n1` (stereo not shown) [Example 2-81, 5-amino-8-(2,6-dimethyl-4-pyridyl)-7-phenyl-2-(tetrahydropyran-3-ylmethyl)-[1,2,4]triazolo[4,3-c]pyrimidin-3-one], the Ki in assay [1] (read-out: A2A pKi (converted)) is 0.501 nM; in assay [2], 316 nM.
In the same order, the values of `Cc1cc(-c2c(-c3ccccc3)nc(N)n3c(=O)n(CC4CCCCO4)nc23)cc(C)n1` (stereo not shown) [Example 2-82, 5-amino-8-(2,6-dimethyl-4-pyridyl)-7-phenyl-2-(tetrahydropyran-2-ylmethyl)-[1,2,4]triazolo[4,3-c]pyrimidin-3-one] are 0.316 nM and 251 nM.
In the same order, the values of `Cc1cc(-c2c(-c3ccccc3)nc(N)n3c(=O)n(C[C@@H]4CN(C(=O)OC(C)(C)C)CCN4C)nc23)cc(C)n1` [Example 2-83, tert-butyl (S)-3-((5-amino-8-(2,6-dimethylpyridin-4-yl)-3-oxo-7-phenyl-[1,2,4]triazolo[4,3-c]pyrimidin-2(3H)-yl)methyl)-4-methylpiperazine-1-carboxylate] are 10 nM and 1000 nM.
In the same order, the values of `Cc1cc(-c2c(-c3ccccc3)nc(N)n3c(=O)n(C[C@H]4CN(C(=O)OC(C)(C)C)CCN4C)nc23)cc(C)n1` [Example 2-84, tert-butyl (R)-3-((5-amino-8-(2,6-dimethylpyridin-4-yl)-3-oxo-7-phenyl-[1,2,4]triazolo[4,3-c]pyrimidin-2(3H)-yl)methyl)-4-methylpiperazine-1-carboxylate] are 6.31 nM and 316 nM.
Consider `Cc1cc(-c2c(-c3ccccc3)nc(N)n3c(=O)n(CC4CS(=O)(=O)C4)nc23)cc(C)n1` [Example 2-90, 5-amino-8-(2,6-dimethyl-4-pyridyl)-2-[(1,1-dioxothietan-3-yl)methyl]-7-phenyl-[1,2,4]triazolo[4,3-c]pyrimidin-3-one], for which the Ki was 50.1 nM in assay [1] (read-out: A2A pKi (converted)) and 794 nM in assay [2].
On the same counts, the results for `Cc1cc(-c2c(-c3ccccc3)nc(N)n3c(=O)n(CCN4CCC4)nc23)cc(C)n1` [Example 2-94, 5-amino-2-[2-(azetidin-1-yl)ethyl]-8-(2,6-dimethyl-4-pyridyl)-7-phenyl-[1,2,4]triazolo[4,3-c]pyrimidin-3-one] are 25.1 nM and above 2510 nM.
Take `Cc1cc(-c2c(-c3ccccc3)nc(N)n3c(=O)n(CCC4CCN(C)CC4)nc23)cc(C)n1` [Example 2-97, 5-amino-8-(2,6-dimethyl-4-pyridyl)-2-[2-(1-methyl-4-piperidyl)ethyl]-7-phenyl-[1,2,4]triazolo[4,3-c]pyrimidin-3-one]: the Ki in assay [1] (read-out: A2A pKi (converted)) is 6.31 nM; in assay [2], 631 nM.
On the same counts, the results for `Cc1cc(-c2c(-c3ccccc3)nc(N)n3c(=O)n(CCN4CCOCC4)nc23)cc(C)n1` [Example 2-99, 5-amino-8-(2,6-dimethyl-4-pyridyl)-2-(2-morpholinoethyl)-7-phenyl-[1,2,4]triazolo[4,3-c]pyrimidin-3-one] are 31.6 nM and 794 nM.
On the same counts, the results for `Cc1cc(-c2c(-c3ccccc3)nc(N)n3c(=O)n(CCN4C[C@@H](C)O[C@@H](C)C4)nc23)cc(C)n1` [Example 2-100, 5-amino-2-[2-((ds)-2,6-dimethylmorpholin-4-yl)ethyl]-8-(2,6-dimethyl-4-pyridyl)-7-phenyl-[1,2,4]triazolo[4,3-c]pyrimidin-3-one] are 316 nM and above 3160 nM.
In the same order, the values of `Cc1cc(-c2c(-c3ccccc3)nc(N)n3c(=O)n(CCN4CCC(F)(F)CC4)nc23)cc(C)n1` [Example 2-101, 5-amino-2-[2-(4,4-difluoro-1-piperidyl)ethyl]-8-(2,6-dimethyl-4-pyridyl)-7-phenyl-[1,2,4]triazolo[4,3-c]pyrimidin-3-one] are 15.8 nM and 631 nM.
`Cc1cc(-c2c(-c3ccccc3)nc(N)n3c(=O)n(CCN4CCN(C)CC4)nc23)cc(C)n1` [Example 2-102, 5-amino-8-(2,6-dimethyl-4-pyridyl)-2-[2-(4-methylpiperazin-1-yl)ethyl]-7-phenyl-[1,2,4]triazolo[4,3-c]pyrimidin-3-one]: the Ki in assay [1] (read-out: A2A pKi (converted)) is 126 nM; in assay [2], above 3160 nM.
Regarding `Cc1cc(-c2c(-c3ccccc3)nc(N)n3c(=O)n(CCN4C5CCCC4CC5)nc23)cc(C)n1` [Example 2-103, 5-amino-2-[2-(8-azabicyclo[3.2.1]octan-8-yl)ethyl]-8-(2,6-dimethyl-4-pyridyl)-7-phenyl-[1,2,4]triazolo[4,3-c]pyrimidin-3-one], the Ki in assay [1] (A2A pKi) is 6.31 nM; in assay [2] it was 1000 nM.
Consider `Cc1cc(-c2c(-c3ccc(F)cc3)nc(N)n3c(=O)n(CCN4CCCCC4)nc23)cc(C)n1` [Example 2-104, 5-amino-8-(2,6-dimethyl-4-pyridyl)-7-(4-fluorophenyl)-2-[2-(1-piperidyl)ethyl]-[1,2,4]triazolo[4,3-c]pyrimidin-3-one], for which the Ki in assay [1] (read-out: A2A pKi (converted)) is 79.4 nM; in assay [2], above 3980 nM.
In the same order, the values of `Cc1cc(-c2c(-c3ccc(F)cc3)nc(N)n3c(=O)n(CCN4CCCCC4)nc23)cc(Cl)n1` [Example 2-105, 5-amino-8-(2-chloro-6-methyl-4-pyridyl)-7-(4-fluorophenyl)-2-[2-(1-piperidyl)ethyl]-[1,2,4]triazolo[4,3-c]pyrimidin-3-one] are 31.6 nM and above 2510 nM.
On the same counts, the results for `Cc1cc(-c2c(-c3ccccc3)nc(N)n3c(=O)n(CCN(C)CC(=O)N4CCC(O)CC4)nc23)cc(C)n1` [Example 2-107, 5-amino-8-(2,6-dimethyl-4-pyridyl)-2-[2-[[2-(4-hydroxy-1-piperidyl)-2-oxo-ethyl]-methyl-amino]ethyl]-7-phenyl-[1,2,4]triazolo[4,3-c]pyrimidin-3-one] are 63.1 nM and above 3160 nM.
In the same order, the values of `Cc1cc(-c2c(-c3ccccc3)nc(N)n3c(=O)n(CCNC4CCCC(C(=O)NC5CC5)C4)nc23)cc(C)n1` (stereo not shown) [Example 2-108, 3-[2-[5-amino-8-(2,6-dimethyl-4-pyridyl)-3-oxo-7-phenyl-[1,2,4]triazolo[4,3-c]pyrimidin-2-yl]ethylamino]-N-cyclopropyl-cyclohexanecarboxamide] are 200 nM and above 3980 nM.
For `COC(=O)CCN1CCC(CCn2nc3c(-c4cc(C)nc(C)c4)c(-c4ccccc4)nc(N)n3c2=O)CC1` [Example 2-109, methyl 3-[4-[2-[5-amino-8-(2,6-dimethyl-4-pyridyl)-3-oxo-7-phenyl-[1,2,4]triazolo[4,3-c]pyrimidin-2-yl]ethyl]-1-piperidyl]propanoate], the Ki in assay [1] (read-out: A2A pKi (converted)) is 20 nM; in assay [2], 398 nM.
In the same order, the values of `Cc1cc(-c2c(-c3ccccc3)nc(N)n3c(=O)n(CCCN4CCCCC4)nc23)cc(C)n1` [Example 2-111, 5-amino-8-(2,6-dimethyl-4-pyridyl)-7-phenyl-2-[3-(1-piperidyl)propyl]-[1,2,4]triazolo[4,3-c]pyrimidin-3-one] are 398 nM and above 3980 nM.
On to `Cc1cc(-c2c(-c3ccccc3)nc(N)n3c(=O)n(CCCn4ccccc4=O)nc23)cc(C)n1` [Example 2-112, 5-amino-8-(2,6-dimethylpyridin-4-yl)-2-(3-(2-oxopyridin-1(2H)-yl)propyl)-7-phenyl-[1,2,4]triazolo[4,3-c]pyrimidin-3(2H)-one], for which the values for the Ki in assay [1] (read-out: A2A pKi (converted)) and in assay [2] were 3.16 nM and 200 nM, respectively.
On the same counts, the results for `Cc1cc(-c2c(N3CCOCC3)nc(N)n3c(=O)n(CCC(F)(F)F)nc23)cc(C)n1` [Example 3-1, 5-amino-8-(2,6-dimethyl-4-pyridyl)-7-morpholino-2-(3,3,3-trifluoropropyl)-[1,2,4]triazolo[4,3-c]pyrimidin-3-one] are 316 nM and above 3160 nM.
In the same order, the values of `Cc1cc(-c2c(N3CCCCC3)nc(N)n3c(=O)n(CCC(F)(F)F)nc23)cc(C)n1` [Example 3-2, 5-amino-8-(2,6-dimethyl-4-pyridyl)-7-(1-piperidyl)-2-(3,3,3-trifluoropropyl)-[1,2,4]triazolo[4,3-c]pyrimidin-3-one] are 6.31 nM and above 3160 nM.
On the same counts, the results for `CCOc1nc(N)n2c(=O)n(CCC(F)(F)F)nc2c1-c1cc(C)nc(C)c1` [Example 3-3, 5-amino-8-(2,6-dimethyl-4-pyridyl)-7-ethoxy-2-(3,3,3-trifluoropropyl)-[1,2,4]triazolo[4,3-c]pyrimidin-3-one] are 158 nM and above 3160 nM.
As for `Cc1cc(-c2c(Cl)nc(N)n3c(=O)n(CCC(F)(F)F)nc23)cc(C)n1` [Example 3-5, 5-amino-7-chloro-8-(2,6-dimethyl-4-pyridyl)-2-(3,3,3-trifluoropropyl)-[1,2,4]triazolo[4,3-c]pyrimidin-3-one], the figures for the Ki in assay [1] (read-out: A2A pKi (converted)) and in assay [2] were 631 nM and above 3160 nM, respectively.
